Experimental data as given in ChEMBL document CHEMBL5653631, “A Potent and Selective ULK1 Inhibitor Suppresses Autophagy and Sensitizes Cancer Cells to Nutrient Stress” (iScience, 2018).
One block for each compound: values may come before it.

Tests used:
[1] = biological target: Cyclin-dependent kinase 5 (Homo sapiens) (UniProt Q00535); assay: Inhibition of human recombinant CDK5 at 500 nM in presence of ATP by radiometric assay relative to control
[2] = biological target: Serine/threonine-protein kinase PAK 5 (Homo sapiens) (UniProt Q9P286); assay: Inhibition of human recombinant PAK5 at 15 nM in presence of ATP by radiometric assay relative to control
Serine/threonine-protein kinase PAK 5 (Homo sapiens), sequence (Q9P286 whole entry, looked up): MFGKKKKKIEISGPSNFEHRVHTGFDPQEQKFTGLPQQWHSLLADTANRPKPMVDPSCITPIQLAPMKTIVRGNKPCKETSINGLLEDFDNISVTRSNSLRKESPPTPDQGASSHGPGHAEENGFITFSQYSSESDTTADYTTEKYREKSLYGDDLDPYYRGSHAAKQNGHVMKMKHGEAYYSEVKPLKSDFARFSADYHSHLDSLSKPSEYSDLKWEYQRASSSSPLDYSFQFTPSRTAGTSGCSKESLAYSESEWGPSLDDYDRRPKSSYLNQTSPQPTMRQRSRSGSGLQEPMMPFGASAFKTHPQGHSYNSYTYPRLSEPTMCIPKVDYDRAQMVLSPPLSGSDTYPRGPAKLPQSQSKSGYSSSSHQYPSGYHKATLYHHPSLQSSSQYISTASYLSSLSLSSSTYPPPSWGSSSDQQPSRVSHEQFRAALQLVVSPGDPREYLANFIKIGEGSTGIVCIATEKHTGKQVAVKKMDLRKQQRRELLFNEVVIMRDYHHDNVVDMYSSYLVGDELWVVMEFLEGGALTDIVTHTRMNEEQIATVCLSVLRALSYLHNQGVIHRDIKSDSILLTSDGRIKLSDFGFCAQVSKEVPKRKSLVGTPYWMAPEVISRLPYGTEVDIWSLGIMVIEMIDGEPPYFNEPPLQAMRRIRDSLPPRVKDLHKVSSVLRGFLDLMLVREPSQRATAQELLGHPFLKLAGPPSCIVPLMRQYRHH

[3] = biological target: Ribosomal protein S6 kinase alpha-3 (Homo sapiens) (UniProt P51812); assay: Inhibition of human recombinant RSK2 at 15 nM related to control ULK1
Ribosomal protein S6 kinase alpha-3 (Homo sapiens), sequence (P51812 whole entry): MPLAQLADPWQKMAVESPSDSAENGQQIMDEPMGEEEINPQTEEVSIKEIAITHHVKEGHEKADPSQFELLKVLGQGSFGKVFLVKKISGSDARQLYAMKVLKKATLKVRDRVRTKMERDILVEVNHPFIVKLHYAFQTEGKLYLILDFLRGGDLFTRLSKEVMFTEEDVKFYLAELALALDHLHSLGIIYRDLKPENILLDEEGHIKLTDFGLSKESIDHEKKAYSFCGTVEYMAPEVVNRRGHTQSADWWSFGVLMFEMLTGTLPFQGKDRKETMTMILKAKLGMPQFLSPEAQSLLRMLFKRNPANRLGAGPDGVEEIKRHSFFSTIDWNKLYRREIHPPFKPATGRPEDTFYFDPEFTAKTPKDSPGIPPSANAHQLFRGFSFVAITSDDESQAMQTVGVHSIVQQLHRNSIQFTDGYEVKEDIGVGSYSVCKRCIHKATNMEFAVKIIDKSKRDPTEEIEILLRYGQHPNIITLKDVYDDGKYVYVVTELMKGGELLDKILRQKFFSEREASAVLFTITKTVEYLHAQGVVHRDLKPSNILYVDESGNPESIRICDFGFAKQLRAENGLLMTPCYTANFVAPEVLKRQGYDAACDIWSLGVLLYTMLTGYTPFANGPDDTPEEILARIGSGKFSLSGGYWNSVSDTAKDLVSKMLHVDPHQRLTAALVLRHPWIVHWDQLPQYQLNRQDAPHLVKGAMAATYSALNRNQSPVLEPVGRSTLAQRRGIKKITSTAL

[4] = biological target: Serine/threonine-protein kinase PLK1 (Homo sapiens) (UniProt P53350); assay: Inhibition of human recombinant PLK1 at 15 nM related to control ULK1
Serine/threonine-protein kinase PLK1 (Homo sapiens), sequence (P53350 whole entry): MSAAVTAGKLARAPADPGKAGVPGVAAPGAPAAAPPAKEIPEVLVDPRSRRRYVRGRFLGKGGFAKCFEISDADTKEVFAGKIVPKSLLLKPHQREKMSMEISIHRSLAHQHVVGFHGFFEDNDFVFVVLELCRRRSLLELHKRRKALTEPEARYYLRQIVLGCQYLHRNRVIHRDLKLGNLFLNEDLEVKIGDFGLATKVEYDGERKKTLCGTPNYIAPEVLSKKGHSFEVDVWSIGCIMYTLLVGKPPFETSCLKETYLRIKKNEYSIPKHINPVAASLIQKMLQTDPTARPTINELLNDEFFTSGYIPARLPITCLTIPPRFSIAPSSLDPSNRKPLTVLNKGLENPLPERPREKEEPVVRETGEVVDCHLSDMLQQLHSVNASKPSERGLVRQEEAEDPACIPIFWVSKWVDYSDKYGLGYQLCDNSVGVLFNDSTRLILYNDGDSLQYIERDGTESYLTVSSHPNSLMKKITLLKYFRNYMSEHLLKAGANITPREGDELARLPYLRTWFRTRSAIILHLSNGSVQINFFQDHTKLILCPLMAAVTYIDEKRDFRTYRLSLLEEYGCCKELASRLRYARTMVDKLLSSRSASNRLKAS

[5] = biological target: T1, MAP/microtubule affinity-regulating kinase 4 (Homo sapiens) (UniProt Q96L34); assay: Inhibition of human recombinant MARK4 at 15 nM in presence of ATP by radiometric assay relative to control
T1 sequence (whole entry): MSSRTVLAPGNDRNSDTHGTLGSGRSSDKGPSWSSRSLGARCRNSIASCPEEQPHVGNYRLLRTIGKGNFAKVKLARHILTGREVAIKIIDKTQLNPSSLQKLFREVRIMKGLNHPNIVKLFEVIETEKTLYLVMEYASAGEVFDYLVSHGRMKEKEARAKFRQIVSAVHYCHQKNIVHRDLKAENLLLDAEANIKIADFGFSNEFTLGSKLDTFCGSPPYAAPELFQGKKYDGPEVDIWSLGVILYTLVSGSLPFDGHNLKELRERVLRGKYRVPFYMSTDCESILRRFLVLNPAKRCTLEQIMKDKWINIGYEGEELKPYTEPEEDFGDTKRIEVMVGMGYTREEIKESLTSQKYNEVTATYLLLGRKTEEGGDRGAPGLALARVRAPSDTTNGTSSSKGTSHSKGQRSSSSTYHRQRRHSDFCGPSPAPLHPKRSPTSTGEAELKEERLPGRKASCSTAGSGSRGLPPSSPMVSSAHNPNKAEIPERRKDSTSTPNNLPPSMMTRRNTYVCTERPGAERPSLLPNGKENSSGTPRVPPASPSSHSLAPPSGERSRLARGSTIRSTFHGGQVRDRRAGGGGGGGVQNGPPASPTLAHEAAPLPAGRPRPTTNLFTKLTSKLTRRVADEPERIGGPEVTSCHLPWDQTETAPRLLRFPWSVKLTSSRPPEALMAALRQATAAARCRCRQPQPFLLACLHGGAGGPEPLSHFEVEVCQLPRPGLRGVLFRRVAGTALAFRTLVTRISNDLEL

[6] = biological target: Receptor tyrosine-protein kinase erbB-4 (Homo sapiens) (UniProt Q15303); assay: Inhibition of human recombinant ErbB4 at 15 nM related to control ULK1
Receptor tyrosine-protein kinase erbB-4 (Homo sapiens), sequence (Q15303 whole entry): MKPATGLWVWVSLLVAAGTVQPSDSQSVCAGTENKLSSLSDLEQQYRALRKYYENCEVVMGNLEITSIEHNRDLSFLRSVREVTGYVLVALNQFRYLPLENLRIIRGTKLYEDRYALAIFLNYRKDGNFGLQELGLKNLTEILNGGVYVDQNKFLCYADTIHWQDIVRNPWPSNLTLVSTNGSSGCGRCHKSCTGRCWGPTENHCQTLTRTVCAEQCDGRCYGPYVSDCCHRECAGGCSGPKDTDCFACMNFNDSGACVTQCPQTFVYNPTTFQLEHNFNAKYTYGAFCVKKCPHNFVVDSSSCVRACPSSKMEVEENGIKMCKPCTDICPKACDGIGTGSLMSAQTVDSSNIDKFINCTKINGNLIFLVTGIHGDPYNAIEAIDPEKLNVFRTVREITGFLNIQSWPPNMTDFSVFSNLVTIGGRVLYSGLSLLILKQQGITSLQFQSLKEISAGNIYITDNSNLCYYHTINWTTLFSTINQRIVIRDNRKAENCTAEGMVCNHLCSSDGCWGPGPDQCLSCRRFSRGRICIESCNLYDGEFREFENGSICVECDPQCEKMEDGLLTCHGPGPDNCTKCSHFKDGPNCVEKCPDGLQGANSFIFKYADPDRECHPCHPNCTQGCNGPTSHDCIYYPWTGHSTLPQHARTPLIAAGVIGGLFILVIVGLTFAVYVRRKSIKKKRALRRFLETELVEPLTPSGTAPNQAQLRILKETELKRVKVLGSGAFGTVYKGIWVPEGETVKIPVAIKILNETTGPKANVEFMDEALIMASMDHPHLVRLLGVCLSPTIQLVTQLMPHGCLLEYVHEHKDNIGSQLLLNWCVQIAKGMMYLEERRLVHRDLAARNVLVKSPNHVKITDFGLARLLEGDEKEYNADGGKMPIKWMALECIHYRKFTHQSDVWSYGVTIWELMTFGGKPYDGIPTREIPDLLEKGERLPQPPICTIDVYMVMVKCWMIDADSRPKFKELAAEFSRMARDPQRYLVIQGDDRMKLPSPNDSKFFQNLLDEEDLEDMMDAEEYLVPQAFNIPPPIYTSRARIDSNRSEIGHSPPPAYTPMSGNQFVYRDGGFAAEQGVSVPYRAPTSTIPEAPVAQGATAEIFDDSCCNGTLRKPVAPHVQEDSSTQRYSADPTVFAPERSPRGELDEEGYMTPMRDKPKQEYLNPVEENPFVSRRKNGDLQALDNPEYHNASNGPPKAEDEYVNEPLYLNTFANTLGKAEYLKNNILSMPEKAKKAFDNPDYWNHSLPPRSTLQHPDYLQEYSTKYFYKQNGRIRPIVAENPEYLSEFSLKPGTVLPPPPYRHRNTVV

[7] = biological target: T2, TGF-beta receptor type-1 (Homo sapiens) (UniProt P36897); assay: Inhibition of human recombinant TGFbR1 at 15 nM in presence of ATP by radiometric assay relative to control
T2 sequence (whole entry): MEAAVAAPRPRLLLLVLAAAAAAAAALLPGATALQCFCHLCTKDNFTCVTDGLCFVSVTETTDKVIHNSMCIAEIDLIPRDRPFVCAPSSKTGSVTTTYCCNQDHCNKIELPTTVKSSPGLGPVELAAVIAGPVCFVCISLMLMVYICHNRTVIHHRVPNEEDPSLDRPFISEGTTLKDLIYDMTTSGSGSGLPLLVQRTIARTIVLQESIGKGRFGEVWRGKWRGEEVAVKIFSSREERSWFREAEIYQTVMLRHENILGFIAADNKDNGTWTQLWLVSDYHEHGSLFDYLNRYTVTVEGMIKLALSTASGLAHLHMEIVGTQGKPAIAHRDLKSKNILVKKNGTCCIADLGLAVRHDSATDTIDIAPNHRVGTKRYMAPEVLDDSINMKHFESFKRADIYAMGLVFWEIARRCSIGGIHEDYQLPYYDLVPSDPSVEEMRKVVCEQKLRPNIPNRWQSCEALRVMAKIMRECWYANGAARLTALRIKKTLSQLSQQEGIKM

[8] = biological target: Serine/threonine-protein kinase 32A (Homo sapiens) (UniProt Q8WU08); assay: Inhibition of human recombinant YANK1 at 40 nM related to control ULK1
Serine/threonine-protein kinase 32A (Homo sapiens), sequence (Q8WU08 whole entry): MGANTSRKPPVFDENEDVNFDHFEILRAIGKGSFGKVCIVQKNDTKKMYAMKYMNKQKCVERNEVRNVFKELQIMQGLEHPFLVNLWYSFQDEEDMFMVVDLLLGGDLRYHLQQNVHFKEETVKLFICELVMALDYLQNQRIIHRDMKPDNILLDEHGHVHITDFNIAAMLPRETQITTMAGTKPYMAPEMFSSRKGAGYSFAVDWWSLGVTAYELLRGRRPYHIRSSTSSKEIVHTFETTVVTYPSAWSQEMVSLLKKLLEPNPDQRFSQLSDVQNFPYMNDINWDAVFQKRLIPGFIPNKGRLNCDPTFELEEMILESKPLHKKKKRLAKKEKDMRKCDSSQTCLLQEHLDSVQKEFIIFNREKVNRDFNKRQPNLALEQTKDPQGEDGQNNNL

[9] = biological target: Tyrosine-protein kinase Fes/Fps (Homo sapiens) (UniProt P07332); assay: Inhibition of human recombinant FES at 40 nM related to control ULK1
Tyrosine-protein kinase Fes/Fps (Homo sapiens), sequence (P07332 whole entry): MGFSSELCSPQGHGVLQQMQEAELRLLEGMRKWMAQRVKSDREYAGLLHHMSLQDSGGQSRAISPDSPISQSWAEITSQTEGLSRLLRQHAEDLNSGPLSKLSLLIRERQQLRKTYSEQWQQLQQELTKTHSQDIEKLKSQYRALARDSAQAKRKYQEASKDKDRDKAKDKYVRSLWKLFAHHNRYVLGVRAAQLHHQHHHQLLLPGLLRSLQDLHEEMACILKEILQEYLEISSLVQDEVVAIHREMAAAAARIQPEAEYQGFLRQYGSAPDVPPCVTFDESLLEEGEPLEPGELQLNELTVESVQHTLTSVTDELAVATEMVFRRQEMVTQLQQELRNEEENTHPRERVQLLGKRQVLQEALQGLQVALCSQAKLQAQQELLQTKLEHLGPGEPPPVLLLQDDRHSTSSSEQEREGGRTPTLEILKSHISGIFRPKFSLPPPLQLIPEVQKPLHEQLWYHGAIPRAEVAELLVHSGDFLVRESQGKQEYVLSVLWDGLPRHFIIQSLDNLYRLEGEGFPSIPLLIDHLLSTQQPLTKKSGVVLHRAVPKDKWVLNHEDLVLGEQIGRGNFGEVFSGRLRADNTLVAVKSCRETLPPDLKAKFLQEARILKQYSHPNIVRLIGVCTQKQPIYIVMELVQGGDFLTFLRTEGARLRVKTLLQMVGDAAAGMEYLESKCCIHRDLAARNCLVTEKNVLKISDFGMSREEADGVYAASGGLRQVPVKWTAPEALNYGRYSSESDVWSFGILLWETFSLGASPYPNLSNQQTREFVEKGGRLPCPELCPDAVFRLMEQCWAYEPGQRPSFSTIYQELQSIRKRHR

[10] = biological target: T3, Testis-specific serine/threonine-protein kinase 4 (Homo sapiens) (UniProt Q6SA08); assay: Inhibition of human recombinant TSSK4 at 40 nM in presence of ATP by radiometric assay relative to control
T3 sequence (whole entry): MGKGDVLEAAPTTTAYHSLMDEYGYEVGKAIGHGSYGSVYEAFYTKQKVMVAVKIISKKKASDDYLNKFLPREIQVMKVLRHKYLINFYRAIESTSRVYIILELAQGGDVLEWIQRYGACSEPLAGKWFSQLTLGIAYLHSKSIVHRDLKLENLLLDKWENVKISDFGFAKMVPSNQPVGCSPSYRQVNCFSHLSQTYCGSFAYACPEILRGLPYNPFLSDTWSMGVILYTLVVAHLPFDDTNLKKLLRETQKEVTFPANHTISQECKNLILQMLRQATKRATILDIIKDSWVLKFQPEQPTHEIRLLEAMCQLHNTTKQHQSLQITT

[11] = biological target: T4, Serine/threonine-protein kinase Nek2 (Homo sapiens) (UniProt P51955); assay: Inhibition of human recombinant NEK2 at 40 nM in presence of ATP by radiometric assay relative to control
T4 sequence (whole entry): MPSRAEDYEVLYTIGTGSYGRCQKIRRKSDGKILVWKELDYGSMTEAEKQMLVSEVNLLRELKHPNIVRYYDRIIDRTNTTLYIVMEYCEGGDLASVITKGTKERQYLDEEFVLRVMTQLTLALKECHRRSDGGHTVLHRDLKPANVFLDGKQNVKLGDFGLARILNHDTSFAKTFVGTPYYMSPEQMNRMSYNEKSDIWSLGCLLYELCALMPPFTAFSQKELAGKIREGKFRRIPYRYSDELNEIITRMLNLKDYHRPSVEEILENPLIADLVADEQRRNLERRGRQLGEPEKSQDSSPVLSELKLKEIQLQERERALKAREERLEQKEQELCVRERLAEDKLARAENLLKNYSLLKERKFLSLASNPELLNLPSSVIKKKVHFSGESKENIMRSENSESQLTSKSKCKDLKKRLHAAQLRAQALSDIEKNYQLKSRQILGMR

Cyclin-dependent kinase 5 (Homo sapiens), sequence (Q00535 whole entry, looked up): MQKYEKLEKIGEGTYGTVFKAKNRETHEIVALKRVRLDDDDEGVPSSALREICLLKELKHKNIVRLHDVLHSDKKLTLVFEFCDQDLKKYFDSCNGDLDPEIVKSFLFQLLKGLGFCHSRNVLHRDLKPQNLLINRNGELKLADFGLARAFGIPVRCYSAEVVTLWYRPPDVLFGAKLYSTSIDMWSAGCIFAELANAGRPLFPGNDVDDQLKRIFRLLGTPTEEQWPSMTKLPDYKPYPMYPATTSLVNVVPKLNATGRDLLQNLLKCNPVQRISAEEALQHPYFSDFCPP

inhibition [1]: 57%
Compound: CNC(=O)c1ccccc1Oc1nc(Nc2cc(OC)c(OC)c(OC)c2)ncc1Br

inhibition [2]: 0% | fold change (FC) [3]: 0 | fold change (FC) [4]: 0.01 | inhibition [5]: 42% | fold change (FC) [6]: 0 | inhibition [7]: 4%
Compound: CC(C)[C@H](NC(=O)c1cc(-c2cnn3cc(-c4ccc(OCCN5CCCCC5)cc4)cnc23)cs1)C(F)(F)F

fold change (FC) [8]: 0.05 | fold change (FC) [9]: 0.21 | inhibition [10]: 0% | inhibition [11]: 0%
Compound: O=C(N[C@@H](C1CC1)C(F)(F)F)c1cc(-c2cnn3cc(-c4ccc(F)cc4)cnc23)cs1
